From US20220362329A1, “TREATING ACUTE LIVER DISEASE WITH TLR-MIK INIHIBITORS” (Yeda Research and Development Co. Ltd., priority 2020, published 2022)

Key:
ALF mouse models [1] = experiment: Liver enzymes activity measurement (serum ALT and AST) in ALF mouse models; assay type: in vivo, mice; conditions: for AST activity in serum / ALT activity in serum: APAP-induced ALF model, inhibitor i.p. 1 hour after 500 mg/kg APAP
Experimental: (§1) Mouse models—8 weeks old C57BL6 male mice were injected intraperitoneally with 500 mg/kg body mass acetaminophen (APAP) in PBS or 300 mg/kg of thioacetamide (TAA) in PBS, 20 hours prior to sample collection. To avoid known circadian effects, all injections were performed between 1 pm and 2 pm. Control mice were injected with vehicle (PBS). For antibiotic treatment, mice were given a cocktail of ampicillin (1 g/l), kanamycin (1 g/l), vancomycin (0.5 g/l) and metronidazole (1 g/l) in drinking water for two weeks. MyD88 and Trif double knockout mice were 8 weeks old, males on C57BL6 background^55. All experimental procedures involving mice were approved by the local IACUC.
MYC inhibition—MYC inhibitor KJ-Pyr-9 or vehicle control was injected intraperitoneally 2 hours following injection of APAP or PBS vehicle control. […] Mice were injected with 0.5 ml per 20 g, so the final dose of KJ-Pyr-9 was 25 mg per kilogram of body mass.
(§2) Inhibition of MAPK pathway proteins—The inhibitors listed in Table 1 hereinbelow were injected intraperitoneally 1 hour following injection of 500 mg/kg APAP or corresponding PBS vehicle. Briefly. The inhibitors were dissolved in 5% DMSO in PBS to a final injection volume of 400 μl for 20 g mouse. Control mice were injected with 5% DMSO in PBS vehicle.

Ly6C-positive monocytes = experiment: Measurement of monocyte infiltration by FACS in ALF mouse models; assay type: in vivo, mice; conditions: for monocyte infiltration: APAP-induced ALF model, inhibitor i.p. 1 hour after 500 mg/kg APAP
Experimental: as §1
Measurement of monocyte infiltration—Livers harvested from mice were finely chopped with sterile scissors and digested with 4 ml of pre-warmed 0.4 mg/ml protease and 0.1 U/ml collagenase D (EBS buffer: 8 g/l NaCl, 0.4 g/l KCl, 88 mg/l NaH2PO4.H2O, 120 mg/l Na2HPO4.H2O, 2.38 g/l HEPES, 0.35 g/l NaHCO3, 0.42 g/l CaCl2) for 30 minutes at 37° C. while shaking Following, 10 ml of cold PBS was added and the suspension was filtered through a 100 μm mesh. To deplete hepatocytes, samples were centrifuged at 30 g for 5 minutes and the supernatant was transferred to new tubes. Cells were collected by centrifugation at 580 g. To lyse red blood cells, 1 ml of Gibco™ ACK Lysing Buffer was added and cells were incubated at room temperature for one minute. Subsequently, cold PBS was added and cells were collected by centrifugation at 580 g.
Receptors on the cells were first blocked with TruStain FcX anti-mouse CD16/32, then the cells were washed with FACS buffer (PBS without calcium and magnesium, 1% FCS), collected by centrifugation at 580 g and stained with CD45-PECy7 (Biolegend, 30F11, cat. 103114), F4/80-FITC (Serotec, Cl:A3-1, cat. G00018) and Ly6C-APC (Biolegend, HK14, cat. 128016) antibodies for 1 hour on ice. Finally, the cells were washed with FACS buffer, collected by centrifugation at 580 g, resuspended in FACS buffer, filtered through 40 μm mesh and measured on DB LSRFortessa. Data was analysed using FlowJo software.
(§3) MYC inhibition—MYC inhibitor KJ-Pyr-9 or vehicle control was injected intraperitoneally 2 hours following injection of APAP or PBS vehicle control. Briefly, 10 mg of KJ-Pyr-9 (Tocris, cat 5306) was dissolved in 1 ml of DMSO and then combined with Tween 80 and 5% dextrose 1:1:8 by volume. Mice were injected with 0.5 ml per 20 g, so the final dose of KJ-Pyr-9 was 25 mg per kilogram of body mass.
as §2, with “Control mice were injected with 5% DMSO in PBS vehicle.” left out

ALF mouse models [2] = experiment: Histology score of H&E stained liver sections in ALF mouse models; assay type: in vivo, mice; conditions: for liver damage, histopathological analysis: APAP-induced ALF model, inhibitor i.p. 1 hour after 500 mg/kg APAP
Experimental: as §1
Histology—Sample from the left lobe of the liver was fixed in 4% paraformaldehyde, embedded in paraffin, sectioned and stained with hematoxylin and eosin (H&E). Slides were scored by a blinded veterinary pathologist for necrosis and hemorrhage on a scale from 0 (healthy) to 5 (most severe).
as §3, §2

ALF mouse models [3] = experiment: Survival of APAP-administered mice; assay type: in vivo; conditions: n=15 per group
Experimental: as §1, §3

[4] = tested on: stellate, endothelial and Kupffer cells; experiment: Single cell RNA sequencing of liver cells; assay type: in vivo, mice; conditions: for number of differentially expressed genes: pseudobulk counts
Experimental: as §1
Following, liver was dissected, placed in cold EBS solution, shaken vigorously with forceps for separation of single cells, followed by filtration through a 100 μm mesh. Hepatocytes were depleted by centrifugation at 30 g for 5 minutes. Cells were then collected by centrifugation at 580 g and resuspended in cold PBS. To enrich for stellate cells, cells with retinoid fluorescence in the Pacific Blue channel were sorted using a BD FACSAria III. Following, stellate cells were mixed with unsorted cells, spun down, resuspended in PBS with 0.04% BSA and counted using Neubauer chamber.
10× library preparation and sequencing—Single cells were captured and processed using the 10× Genomics Chromium 3′ Single Cell RNA seq protocol according to the manufacturers' manual. Subsequently, RNA was sequenced using NextSeq® 500/550 High Output Kit v2 (Illumina cat no. 20024906).
as §3
Mapping: Single cell RNA sequencing data were demultiplexed, mapped to the GRCm38 mouse genome and UMIs were counted using the Cell Ranger Single-Cell Software Suite 2.1.1. Filtering and doublet removal: Cells with less than 100 detected transcripts and more than 10% mitochondrial reads were removed. Clustering analysis was used to identify populations of thrombocytes, erythrocytes, neutrophils and mast cells. Following, a second filtering was effected using 600 detected transcripts. […] The second step was necessary, as there were many low quality cells with low threshold. Following, doublets were identified by finding clusters of cells expressing gene expression patterns of two cell types at the same time. Marker sets used were Dcn, Colec11, Ecm1, Cxcl12, Sod3, Angptl6, Rgs5, Reln, Tmem56, Rbp1, G0s2, Rarres2, Acta2, Tagln for stellate cells; Gpihbp1, Aqp1, Clec4g, Dnase113, Fabp4, Ptprb, Kdr, Gpr182 for endothelial cells; Alb, Ttr, Ambp, Rbp4, Cyp2e1, Spp1 for hepatocytes; Cd3e, Cd3g, Cd3d, Lat, Thy1, Cxcr6, Nkg7, Cd4, Cd8b1, Klra4, Ncr1, Gzmb, Lck, Txk, Ms4a4b, Ccl5 for T cells; Cd79b, Cd79a, Ms4a1, Siglecg, Fcmr, Cd19, Fcer2a for B cells; Adgre1, Cd51, Clec4f, Timd4, Folr2, C1qa, C1qb, C1qc, Vsig4, Xcr1, Cd209a, Itgax, Siglech, Chil3, F13a1, S100a4, Lgals3, Gda, S100a9, Retnlg for macrophages, DCs and neutrophils; Alas2, Hbb-bt, Hbb-bs, Hba-a2, Hba-a1 for erythrocytes. Clustering—All cells from all 22 samples were first clustered using R package Seurat v2.3.4 FindClusters function^56. Genes that were present in less than 3 cells were removed and then highly variable genes were identified as having mean of non-zero values between 0.0125 and 3 and standard deviation higher than 0.5. Dimensionality reduction was effected with PCA and first 50 PCs were used for clustering.
As the liver population is very complex, it was decided to perform stepwise clustering. First, expression of Ecm1, Ptprc, Ptprb, Epcam, Msln and Alb in the obtained clusters was determined. […]

APAP-induced ALF = conditions: intravenous; cited from earlier work
[5] = both ALF models (APAP, TAA), KJ-Pyr-9 25 mg/kg i.p.
[6] = steady state, endothelial cells

Compound: COc1cc(O)c2c(c1)/C=C/C[C@H](O)[C@H](O)C(=O)/C=C\C[C@H](C)OC2=O [TAK1 inhibitor, 5Z-7-Oxozeaenol]
- AST activity in serum (ALF mouse models [1]): significantly reduced
- monocyte infiltration (Ly6C-positive monocytes): significant reduction
- liver damage, histopathological analysis (ALF mouse models [2]): significantly reduced liver damage

Compound: C[S+]([O-])c1ccc(-c2nc(-c3ccncc3)c(-c3ccc(F)cc3)[nH]2)cc1 (centres unmarked) [p38 inhibitor, SB203580]
- ALT activity in serum (ALF mouse models [1]): significantly reduced
- AST activity in serum (ALF mouse models [1]): significantly reduced
- monocyte infiltration (Ly6C-positive monocytes): significant reduction
- liver damage, histopathological analysis (ALF mouse models [2]): significantly reduced liver damage

Compound: NC(=O)c1ccc(-c2cc(-c3ccc([N+](=O)[O-])cc3)nc(-c3ccco3)c2)cc1 [MYCi, KJ-Pyr-9]
- mortality (ALF mouse models [3]): attenuated
- Serum ALT activity (ALF mouse models [1]; [5]): attenuated
- Serum AST activity (ALF mouse models [1]; [5]): attenuated
- expression of metallothionein 1 and 2 (Mt1 and Mt2) ([4]; ALF): remained unaffected
- neutrophil infiltration ([4]; ALF): not affected
- total gene expression level ([4]; ALF): lower total gene expression level
- expression of neutrophil attractant chemokine Cxcl2 ([4]; ALF, Kupffer cells): did not get downregulated
- expression of the 82 genes constituting the common activation signature ([4]; ALF, activated stellate, Kupffer and endothelial cell subsets): markedly attenuated
- drop of median number of detected transcripts ([4]; ALF, stellate cells): ~4 times
- upregulation of senescence and cell cycle arrest marker Cdkn1a (coding p21) ([4]; ALF, stellate cells): attenuated
- median number of detected transcripts ([4]; ALF, stellate cells, 3500 without MYC inhibition): 945
- activated populations (AAs, AAe, AAk) ([4]; during ALF induction): did not arise
- Map3k8 expression (coding for TPL2) ([4]; during ALF, activated resident populations): strong induction
- infiltration of Ly6C-positive monocytes to the liver (single cell transcriptomic data) ([4]; either APAP- or TAA-induced ALF): near-total reduction
- effect on the gene expression landscape ([4]; in the absence of liver failure): did not feature a notable effect
- differentially expressed genes ([4]; steady state, Kupffer cells): downregulation of genes related to antigen processing and presentation
- number of differentially expressed genes ([4]; steady state, Kupffer cells): 94 genes
- differentially expressed genes [4, 6]: downregulation of genes of the AP1 family
- number of differentially expressed genes [4, 6]: 5 genes
- gene ontology analysis of differentially expressed genes ([4]; steady state, stellate cells): downregulation of genes coding for ribosome proteins and other components of the translation machinery
- number of differentially expressed genes ([4]; steady state, stellate cells): 148 genes
- infiltration of Ly6C-positive monocytes (F4/80 and Ly6C double-positive cells within the immune CD45-positive population) (Ly6C-positive monocytes; ALF mice (FIGS. 4C APAP, 19A TAA), KJ-Pyr-9 25 mg/kg i.p. 2 hours after APAP): dramatic reduction
- hepatic damage, tissue histology by H&E staining (ALF mouse models [2]; during ALF (FIGS. 4F-G APAP, 19C-D TAA), KJ-Pyr-9 25 mg/kg i.p.): reduced hepatic damage

Compound: CN1C(=O)C(Cc2c[nH]c3ccccc23)NC1=S (centres unmarked) [RIP1 inhibitor, Nec1]
- ALT activity in serum (ALF mouse models [1]): significantly reduced
- AST activity in serum (ALF mouse models [1]): significantly reduced

Compound: CC(=O)N[C@@H](CS)C(=O)O [N-acetylcysteine]
- adverse effects including anaphylactic reaction (APAP-induced ALF): ≤ 15 % of the cases
- effectiveness of the intervention (APAP-induced ALF): only very partially effective

Compound: CC[C@@H]1[C@H](F)C(=O)N[C@@H]1COc1nccc2cc(C(N)=O)c(OC)cc12 [IRAK4 inhibitor, PF 06650833]
- ALT activity in serum (ALF mouse models [1]): significantly reduced
- AST activity in serum (ALF mouse models [1]): significantly reduced
- monocyte infiltration (Ly6C-positive monocytes): significant reduction
- liver damage, histopathological analysis (ALF mouse models [2]): significantly reduced liver damage
